Experimental data taken from ChEMBL document CHEMBL1201862, “PubChem BioAssay data set” (2004).
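Dose response: 5 concentrations. Exposure: 48 h. Format: 96-well plates. Endpoint: linear interpolation; highest concentration if not reached. The concentration for 50% growth inhibition is given as GI50.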 Activity calls are given as the source filed them. Cut-off read from the data, not from the text of the source: active = GI50 up to about 1.1 µM and inactive = higher.

Assays:
Assay in all cases: NCI tumour cell line growth inhibition, 48 h
UACC-62 = tested on: UACC-62
EKVX = tested on: EKVX
RPMI-8226 = tested on: RPMI-8226
A549 = tested on: A549
OVCAR-5 = tested on: OVCAR-5
U-251 = tested on: U-251
HT-29 = tested on: HT-29
IGROV-1 = tested on: IGROV-1
SK-MEL-28 = tested on: SK-MEL-28
HCT-15 = tested on: HCT-15
786-0 = tested on: 786-0
SW-620 = tested on: SW-620
SK-OV-3 = tested on: SK-OV-3
UACC-257 = tested on: UACC-257
SK-MEL-2 = tested on: SK-MEL-2
Malme-3M = tested on: Malme-3M

| Structure (SMILES) | GI50 (UACC-62) | GI50 (EKVX) | GI50 (RPMI-8226) | GI50 (A549) | GI50 (OVCAR-5) | GI50 (U-251) | GI50 (HT-29) | GI50 (IGROV-1) | GI50 (SK-MEL-28) | GI50 (HCT-15) | GI50 (786-0) | GI50 (SW-620) | GI50 (SK-OV-3) | GI50 (UACC-257) | GI50 (SK-MEL-2) | GI50 (Malme-3M) |
| --- | --- | --- | --- | --- | --- | --- | --- | --- | --- | --- | --- | --- | --- | --- | --- | --- |
| CCNCCNC(=O)c1ccc(Br)cc1 | > 100 µM (inactive) | > 100 µM (inactive) | > 100 µM (inactive) | > 100 µM (inactive) | > 100 µM (inactive) | > 100 µM (inactive) | > 100 µM (inactive) | > 100 µM (inactive) | > 100 µM (inactive) | > 100 µM | > 100 µM (inactive) | > 100 µM (inactive) | > 100 µM (inactive) |  |  |  |
| COc1ccc(Br)c(CCCCC(=O)O)c1 | > 100 µM (inactive) | > 100 µM (inactive) | > 100 µM (inactive) | > 100 µM (inactive) |  | > 100 µM (inactive) | > 100 µM (inactive) | > 100 µM (inactive) | > 100 µM (inactive) | > 100 µM | > 100 µM (inactive) | > 100 µM (inactive) | > 100 µM (inactive) | > 100 µM (inactive) |  |  |
| CCn1c(O)c(C(=O)Nc2cccs2)c(=O)n(CC)c1=S | 16 µM (inactive) |  | 20.4 µM (inactive) | 18.5 µM (inactive) | 23.7 µM (inactive) | 11.4 µM (inactive) | 17.6 µM (inactive) | 20.5 µM (inactive) | 17.3 µM (inactive) | 14 µM | 19.6 µM (inactive) | 23.2 µM (inactive) | 26.7 µM (inactive) | 22.7 µM (inactive) | 17.3 µM (inactive) | 19.9 µM (inactive) |
| COC1/C(=C\C(C)=O)c2ccccc2N1C(C)=O (stereo not given) | > 100 µM (inactive) | > 100 µM (inactive) | > 100 µM (inactive) | > 100 µM (inactive) |  | > 100 µM (inactive) | > 100 µM (inactive) | > 100 µM (inactive) | > 100 µM (inactive) | > 100 µM | > 100 µM (inactive) | > 100 µM (inactive) | > 100 µM (inactive) | > 100 µM (inactive) | > 100 µM (inactive) |  |
| COc1ccc(/C(Cl)=C/c2ccc(Cl)c(Cl)c2)cc1 | 24.3 µM (inactive) | 20.2 µM (inactive) | 18.2 µM (inactive) | 22.4 µM (inactive) |  | 21.5 µM (inactive) | 18.3 µM (inactive) | 38.1 µM (inactive) | 38.2 µM (inactive) | 23.1 µM | 32.5 µM (inactive) | 43.2 µM (inactive) | 37.8 µM (inactive) | 24.3 µM (inactive) |  | 20.9 µM (inactive) |
| CCOC(=O)C/C(=N\c1cc(C)on1)N(CC)CC.[O-][Cl+3]([O-])([O-])O | > 100 µM (inactive) | > 100 µM (inactive) | > 100 µM (inactive) | > 100 µM (inactive) | > 100 µM (inactive) | > 100 µM (inactive) | > 100 µM (inactive) | > 100 µM (inactive) | > 100 µM (inactive) | > 100 µM | > 100 µM (inactive) | > 100 µM (inactive) | > 100 µM (inactive) |  | > 100 µM (inactive) | > 100 µM (inactive) |
| O=[N+]([O-])c1cc2c(cc1O)[nH]c1cccc([N+](=O)[O-])c12 |  |  | > 100 µM (inactive) | > 100 µM (inactive) | > 100 µM (inactive) |  | > 100 µM (inactive) |  | > 100 µM (inactive) | > 100 µM | > 100 µM (inactive) | > 100 µM (inactive) |  | > 100 µM (inactive) | > 100 µM (inactive) | > 100 µM (inactive) |
| COC(=O)Cc1cc(=O)[nH]c2c1C(=O)CCC2 |  | > 100 µM (inactive) | > 100 µM (inactive) | > 100 µM (inactive) | > 100 µM (inactive) | > 100 µM (inactive) | > 100 µM (inactive) | > 100 µM (inactive) | > 100 µM (inactive) | > 100 µM | > 100 µM (inactive) | > 100 µM (inactive) | > 100 µM (inactive) | > 100 µM (inactive) | > 100 µM (inactive) | > 100 µM (inactive) |
| CC1(SCC(N)C(=O)O)CC(=O)NC1=O (stereo not given) | > 100 µM (inactive) | > 100 µM (inactive) | > 100 µM (inactive) | > 100 µM (inactive) |  | > 100 µM (inactive) | > 100 µM (inactive) | > 100 µM (inactive) | > 100 µM (inactive) | > 100 µM | > 100 µM (inactive) | > 100 µM (inactive) | > 100 µM (inactive) | > 100 µM (inactive) | > 100 µM (inactive) |  |
| NC1=NC(=O)C(CC(=O)Nc2ccc([N+](=O)[O-])cc2[N+](=O)[O-])S1 (stereo not given) | > 100 µM (inactive) | > 100 µM (inactive) | > 100 µM (inactive) | > 100 µM (inactive) | > 100 µM (inactive) | > 100 µM (inactive) | > 100 µM (inactive) | > 100 µM (inactive) | > 100 µM (inactive) |  | > 100 µM (inactive) | > 100 µM (inactive) |  | > 100 µM (inactive) | > 100 µM (inactive) | > 100 µM (inactive) |
| COc1ccc2c(c1)[n+]([O-])c(C(N)=O)c(N)[n+]2[O-] |  | > 100 µM (inactive) | > 100 µM (inactive) | > 100 µM (inactive) | > 100 µM (inactive) | 86.7 µM (inactive) | 61.9 µM (inactive) | 75.7 µM (inactive) | > 100 µM (inactive) | 61 µM | 93.1 µM (inactive) | 57.9 µM (inactive) | > 100 µM (inactive) | 28.6 µM (inactive) | > 100 µM (inactive) | > 100 µM (inactive) |
| COc1ccc(NC(=O)CC(=O)n2nc(-c3ccccc3)c(/N=N/c3ccccc3C(=O)O)c2-c2ccccc2)cc1 | > 100 µM (inactive) | 34.6 µM (inactive) | > 100 µM (inactive) | > 100 µM (inactive) | > 100 µM (inactive) | 42.6 µM (inactive) |  | 83.4 µM (inactive) | 74.5 µM (inactive) | > 100 µM | 21.9 µM (inactive) | > 100 µM (inactive) | 15.9 µM (inactive) |  | > 100 µM (inactive) |  |
| O=C(CC1(O)C(=O)Nc2ccccc21)c1ccco1 (stereo not given) | > 100 µM (inactive) | > 100 µM (inactive) | > 100 µM (inactive) | > 100 µM (inactive) | > 100 µM (inactive) |  | > 100 µM (inactive) | > 100 µM (inactive) | > 100 µM (inactive) | > 100 µM | > 100 µM (inactive) | > 100 µM (inactive) | > 100 µM (inactive) | > 100 µM (inactive) | > 100 µM (inactive) | > 100 µM (inactive) |
| Nc1nc(SCc2ccccc2Cl)c2ncn(C3OC(CO)C(O)C3O)c2n1 (stereo not given) | 72.3 µM (inactive) |  | 56 µM (inactive) | 96.6 µM (inactive) | > 100 µM (inactive) | > 100 µM (inactive) | > 100 µM (inactive) | > 100 µM (inactive) | 69.2 µM (inactive) | > 100 µM | > 100 µM (inactive) | > 100 µM (inactive) | > 100 µM (inactive) |  | > 100 µM (inactive) | > 100 µM (inactive) |
| N#Cc1c(NN)nc(NN)c(C#N)c1-c1ccccc1 | > 100 µM (inactive) | > 100 µM (inactive) | > 100 µM (inactive) | > 100 µM (inactive) | > 100 µM (inactive) |  | > 100 µM (inactive) | > 100 µM (inactive) | > 100 µM (inactive) | > 100 µM | > 100 µM (inactive) | > 100 µM (inactive) | > 100 µM (inactive) | > 100 µM (inactive) | > 100 µM (inactive) | > 100 µM (inactive) |
